# Test results published in patent US20100323990A1, “SHIP 1 MODULATOR PRODRUGS” (THE UNIVERSITY OF BRITISH COLUMBIA, priority 2006, published 2010).
# System: SHIP enzyme
# Assay: In vitro SHIP enzyme assay (Assay 1), phosphate release by Malachite Green; on Assay 1: SHIP enzyme assay, desired activity: key: a ‘+’ indicates a positive result for desired activity; a ‘−’ indicates a negative result for desired activity
# Format: biochemical
# Experimental: Assay 1) In vitro testing in a SHIP enzyme assay. Test compounds were dissolved in a suitable solvent (e.g. EtOH, DMSO and others) and diluted into aqueous buffer (20 mM Tris HCl, pH 7.5 and 10 mM MgCl2). SHIP enzyme assays were performed in 96-well microtitre plates with 10 ng of enzyme/well in a total volume of 25 μL of 20 mM Tris HCl, pH 7.5 and 10 mM MgCl2. SHIP enzyme was incubated with test extracts (provided in solvent) or vehicle for 15 min at 23° C. before the addition of 100 μM inositol-1,3,4,5-tetrakisphosphate (Echelon Biosciences Inc, Salt Lake City, Utah). After 20 min at 37° C. and the amount of inorganic phosphate released assessed by the addition of Malachite Green reagent and absorbance measurement at 650 nm. Assay 2) Macrophage TNF-α production. J774.1a macrophage cells were treated with 10 μg/mL of test compound dissolved in solvent (e.g. cyclodextran) for 40 minutes prior to the addition of 100 ng/mL LPS. Culture supernatants were collected after 2 hr and 5 hr for TNF-α determination by ELISA. Assay 3) Macrophage TNF-α NO assay. J774.1a macrophage cells were treated with 10 μg/ml of test compound dissolved in solvent for 40 minutes prior to the addition of LPS. Culture supernatants were collected after 24 hr. for determination of NO concentration using the Griess reagent. Assay 4) Stimulation of mast cells by FcεRI crosslinking. Mast cells were pre-loaded overnight in BMMC medium lacking IL-3 with 0.1 μg/ml anti-DNP IgE (SPE-7, Sigma, Oakville, Ont). For calcium flux measurements, cells were incubated with 2 μM fura 2-acetoxymethyl ester (Molecular Probes, Eugene, Oreg.) in Tyrode's buffer at 23° C. for 45 min. Cells were then washed and incubated in the presence of the test compound 30 min prior to stimulation with the indicated concentration of DNP-human serum albumin (DNP-HSA). Calcium influx was monitored by spectrofluorometry as described previously. For analysis of intracellular signaling, cells were pre-loaded with anti-DNP IgE as above, pre-treated with the test compound for 30 min at 37° C. and stimulated with 20 ng/ml DNP-HSA for 5 min. Total cell lysates were then prepared and analyzed for phospho-PKB, phospho-p38^MAPK, phospho-MAPK, Grb-2 (Cell Signalling, Mississauga, Ont) and SHIP^6 by immunoblot analysis. Assay 5) Mouse acute cutaneous anaphylaxis model. 6-8 week old CD1 mice (University of British Columbia Animal Facility, Vancouver, BC) were sensitized to the hapten DNP by cutaneous application of 25 μL of 0.5% dinitrofluorobenzene (DNFB) (Sigma, Oakville, Ont) in acetone to the shaved abdomen of mice for two consecutive days. 24 hrs later, test substances (dissolved in 10 μL of 1:2 DMSO:MeOH) were painted on the right ear while the left ear received vehicle control. 30 min after drug application, DNFB was applied to both ears to induce mast cell degranulation. A 6 mm punch was taken from the ear and immediately frozen on dry ice for subsequent determination of neutrophil myeloperoxidase (MPO) activity. Assay 6) Mouse endotoxemia model. 6-8 week old C57B16 mice (VCHRI Mammalian Model of Human Disease Core Facility, Vancouver, BC) were orally administered the test compound 30 min prior to an IP injection of 2 mg/kg of LPS (E. Coli serotype 0111:B4, Sigma, Oakville, Ont). Blood was drawn 2 hrs later for determination of plasma TNFα by ELISA. Assay 7) In vitro Mulitple Myeloma (MM) assay. The ability of SHIP activators to reduce tumor cell survival was assessed in MM cell lines treated with the test compound. The lines OPM1, OPM2, MM.1S and RPMI 8226 were plated at a density of 1×10^5 cells/mL in 200 μL of medium with various concentrations of the test compound, and viable cell numbers were determined on day 3 and day 5 by trypan blue exclusion. The lines RPMI 8226 and U266 were plated at a density of 1×10^6 cells/mL in 250 μL of medium with various concentrations of the test compound. At day 4, the medium of each culture was replaced by fresh medium containing the same concentration of test compound. […]
structure (smiles),measurement,setting,value
Cc1cc(O)cc2c1[C@]1(C)CCC3C(C)(C)CCC[C@]3(C)[C@H]1C2 (some centres unmarked) [Compound 100],SHIP enzyme activity in vitro,,enhanced SHIP enzyme activity in vitro
same,"Assay 1: SHIP enzyme assay, desired activity","10 ng enzyme/well, 100 μM inositol-1,3,4,5-tetrakisphosphate",+
